What all share (assay type): in vivo
Test [1] concerns Watergrass (Echinochloa). Nature of the test: Pre-Emergent Test, herbicidal effectiveness. Particulars: pre-emergence, 504 h, 33 micrograms per cm^2, 3 weeks, 0-to-100 scale, read-out: Herbicidal Effectiveness, % Control Pre, W. The procedure:
(§1) An acetone solution of the test compound was prepared by mixing 750 mg of the compound, 220 mg of a nonionic surfactant and 25 ml of acetone. This solution was added to approximately 125 ml of water containing 156 mg of surfactant.
(§2) Seeds of the test vegetation were planted in a pot of soil and the test solution was sprayed uniformly onto the soil surface at a dose of 33 micrograms/cm^2. The pot was watered and placed in a greenhouse. […] At the end of this period, the herbicidal effectiveness of the compound was rated based on the physiological observations. A 0-to-100 scale was used, 0 representing no phytotoxicity, 100 representing complete kill.

For test [2], the system named is Lambsquarter (Chenopodium album). Nature of the test: Pre-Emergent Test, herbicidal effectiveness. As to conditions: pre-emergence, 504 h, 33 micrograms per cm^2, 3 weeks, 0-to-100 scale, read-out: Herbicidal Effectiveness, % Control Pre, L. As to the method:
as §1, §2

For test [3], the system named is Mustard (Brassica arvensis). Nature of the test: Pre-Emergent Test, herbicidal effectiveness. Particulars: pre-emergence, 504 h, 33 micrograms per cm^2, 3 weeks, 0-to-100 scale. As to the method: as §1, §2
Test [4] concerns Crabgrass (Digitaria sanguinalis). Nature of the test: Pre-Emergent Test, herbicidal effectiveness. As to conditions: pre-emergence, 504 h, 33 micrograms per cm^2, 3 weeks, 0-to-100 scale, read-out: Herbicidal Effectiveness, % Control Pre, C. As to the method:
as §1, §2

Test [5] concerns Wild Oats (Avena fatua). The test can be described thus: Pre-Emergent Test, herbicidal effectiveness. As to conditions: pre-emergence, 504 h, 33 micrograms per cm^2, 3 weeks, 0-to-100 scale, read-out: Herbicidal Effectiveness, % Control Pre, O. As to the method:
as §1, §2

Test [6] has as its system Pigweed (Amaranthus retroflexus). The test can be described thus: Pre-Emergent Test, herbicidal effectiveness. As to conditions: pre-emergence, 504 h, 33 micrograms per cm^2, 3 weeks, 0-to-100 scale, read-out: Herbicidal Effectiveness, % Control Pre, P. The procedure: as §1, §2
Test [7] relates to Watergrass (Echinochloa). Nature of the test: Post-Emergent Test, herbicidal effectiveness. Particulars: post-emergence, 504 h, 33 micrograms per cm^2, 3 weeks, 0-to-100 scale, read-out: Herbicidal Effectiveness, % Control Post, W.
The subject of test [8] is Lambsquarter (Chenopodium album). Nature of the test: Post-Emergent Test, herbicidal effectiveness. Particulars: post-emergence, 504 h, 33 micrograms per cm^2, 3 weeks, 0-to-100 scale, read-out: Herbicidal Effectiveness, % Control Post, L.
For test [9], the system named is Mustard (Brassica arvensis). The test can be described thus: Post-Emergent Test, herbicidal effectiveness. As to conditions: post-emergence, 504 h, 33 micrograms per cm^2, 3 weeks, 0-to-100 scale.
Test [10] deals with Crabgrass (Digitaria sanguinalis). Nature of the test: Post-Emergent Test, herbicidal effectiveness. As to conditions: post-emergence, 504 h, 33 micrograms per cm^2, 3 weeks, 0-to-100 scale, read-out: Herbicidal Effectiveness, % Control Post, C.
Test [11] has as its system Wild Oats (Avena fatua). The test can be described thus: Post-Emergent Test, herbicidal effectiveness. As to conditions: post-emergence, 504 h, 33 micrograms per cm^2, 3 weeks, 0-to-100 scale, read-out: Herbicidal Effectiveness, % Control Post, O.
For test [12], the system named is Pigweed (Amaranthus retroflexus). Nature of the test: Post-Emergent Test, herbicidal effectiveness. Particulars: post-emergence, 504 h, 33 micrograms per cm^2, 3 weeks, 0-to-100 scale, read-out: Herbicidal Effectiveness, % Control Post, P.

As to `CCc1nnc(CNc2c(CC)cccc2CC)[nH]1` [Compound 8A], the pest or weed control at 33 µg/cm2 (with Watergrass (Echinochloa) [1]; in test [2]; in [3]; in test [4]; with Wild Oats (Avena fatua) [5]; in test [6]) was 0% throughout. Further, the pest or weed control at 5000 µg/mL, 33 µg/cm2 (with Watergrass (Echinochloa) [7]; in [8]; in test [9]; in test [10]; in the test with Wild Oats (Avena fatua) [11]; in [12]) was 0% each time.
`Cc1cccc(C)c1NCc1nnc[nH]1` [Compound 9A]: the pest or weed control at 33 µg/cm2 (with Watergrass (Echinochloa) [1]; in test [2]; in [3]; in test [4]; in the test with Wild Oats (Avena fatua) [5]; in [6]) was 0% each time. The pest or weed control at 5000 µg/mL, 33 µg/cm2 (in the test with Watergrass (Echinochloa) [7]; in [8]; in test [9]; in test [10]; with Wild Oats (Avena fatua) [11]; in test [12]) was 0% throughout.
On to `Cc1cccc(C)c1N(Cc1nnc[nH]1)C(=O)CCl` [Compound 9B], for which the pest or weed control at 33 µg/cm2 in the test with Watergrass (Echinochloa) [1] was 100%; in [2], 100%; in test [3], 55%; in [4] it was 100%; in the test on Wild Oats (Avena fatua) [5], 100%; in test [6], 100%. In addition, the pest or weed control at 5000 µg/mL, 33 µg/cm2 in the test on Watergrass (Echinochloa) [7] amounted to 75%; in test [8] it was 25%; in test [9] it was 25%; in test [10], 70%; in the test on Wild Oats (Avena fatua) [11] it was 65%; in test [12], 0%.
With `Cc1nnc(CCNc2c(C)cccc2C)[nH]1` [Compound 10A], the pest or weed control at 33 µg/cm2 (in the test with Watergrass (Echinochloa) [1]; in test [2]; in test [3]; in test [4]; with Wild Oats (Avena fatua) [5]; in [6]) was 0% each time. In addition, the pest or weed control at 5000 µg/mL, 33 µg/cm2 (in the test on Watergrass (Echinochloa) [7]; in [8]; in test [9]; in test [10]; with Wild Oats (Avena fatua) [11]; in test [12]) was 0% throughout.
With `Cc1nnc(CCN(C(=O)CCl)c2c(C)cccc2C)[nH]1` [Compound 10B], the pest or weed control at 33 µg/cm2 with Watergrass (Echinochloa) [1] stood at 95%; in test [2] it was 0%; in [3] it was 0%; in [4], 80%; with Wild Oats (Avena fatua) [5], 15%; in [6], 0%. The pest or weed control at 5000 µg/mL, 33 µg/cm2 in the test with Watergrass (Echinochloa) [7] is 55%; in test [8], 25%; in [9] it was 35%; in test [10], 40%; in the test on Wild Oats (Avena fatua) [11], 25%; in test [12], 0%.
On to `Cc1nnc(C(C)Nc2c(C)cccc2C)[nH]1` (stereo not drawn) [Compound 11A], for which the pest or weed control at 33 µg/cm2 (with Watergrass (Echinochloa) [1]; in test [2]; in test [3]; in test [4]; with Wild Oats (Avena fatua) [5]; in test [6]) was 0% each time. The pest or weed control at 5000 µg/mL, 33 µg/cm2 (in the test with Watergrass (Echinochloa) [7]; in [8]; in [9]; in [10]; in the test with Wild Oats (Avena fatua) [11]; in test [12]) was 0% throughout.
For `Cc1nnc(C(C)N(C(=O)CCl)c2c(C)cccc2C)[nH]1` (stereo not drawn) [Compound 11B], the pest or weed control at 33 µg/cm2 in the test with Watergrass (Echinochloa) [1] turned out to be 100%; in [2] it was 100%; in [3] it was 80%; in [4] it was 100%; with Wild Oats (Avena fatua) [5], 97%; in test [6], 90%. The pest or weed control at 5000 µg/mL, 33 µg/cm2 in the test with Watergrass (Echinochloa) [7] came out at 73%; in [8], 25%; in test [9], 20%; in [10], 55%; with Wild Oats (Avena fatua) [11] it was 10%; in test [12], 20%.
Consider `Cc1cccc(C)c1NC(C)c1nnc[nH]1` (stereo not drawn) [Compound 12A], for which the pest or weed control at 33 µg/cm2 (in the test on Watergrass (Echinochloa) [1]; in test [2]; in [3]; in test [4]; in the test with Wild Oats (Avena fatua) [5]; in test [6]) was 0% throughout. Moreover, the pest or weed control at 5000 µg/mL, 33 µg/cm2 (in the test on Watergrass (Echinochloa) [7]; in test [8]; in [9]; in test [10]; in the test on Wild Oats (Avena fatua) [11]; in [12]) was 0% throughout.
With `Cc1cccc(C)c1N(C(=O)CCl)C(C)c1nnc[nH]1` (stereo not drawn) [Compound 12B], the pest or weed control at 33 µg/cm2 with Watergrass (Echinochloa) [1] was found to be 100%; in [2], 75%; in [3] it was 75%; in [4], 100%; in the test on Wild Oats (Avena fatua) [5], 97%; in test [6], 90%. For the same molecule, the pest or weed control at 5000 µg/mL, 33 µg/cm2 in the test on Watergrass (Echinochloa) [7] amounted to 80%; in [8], 45%; in [9], 0%; in test [10], 65%; with Wild Oats (Avena fatua) [11], 45%; in test [12] it was 20%.
On to `Cc1cccc(C)c1N(CCc1nnc[nH]1)C(=O)CCl` [Compound 13], for which the pest or weed control at 33 µg/cm2 in the test with Watergrass (Echinochloa) [1] amounted to 97%; in test [2], 75%; in [3] it was 20%; in test [4], 85%; in the test on Wild Oats (Avena fatua) [5], 25%; in test [6], 40%. The pest or weed control at 5000 µg/mL, 33 µg/cm2 in the test on Watergrass (Echinochloa) [7] was 63%; in [8], 0%; in [9], 0%; in test [10], 60%; in the test on Wild Oats (Avena fatua) [11], 20%; in test [12], 0%.

The record behind these values is patent publication US4243408A, “Herbicidal N-triazolylmethyl-substituted alpha-haloacetanilide” (Chevron Research Company, priority 1978, dated 1981).
